We go through 3 compounds from paper PMC9482650, “Quantitative fragmentomics allow affinity mapping of interactomes” (Nature Communications, 2022).

Ends that are not written are not given here.

Experiment in all cases: Holdup assay
Holding throughout (format): binding

In assay [1] the target is LNX2_2 PDZ (Homo sapiens, UniProt Q8N448).
Assay [2] addresses GOPC PDZ (Homo sapiens, UniProt Q9HD26).
In assay [3] the target is RADIL PDZ (Homo sapiens, UniProt Q96JH8).
Assay [4] deals with Inadl_8 PDZ (Homo sapiens, UniProt Q8NI35).
Inadl_8 PDZ, sequence (Q8NI35 1437-1520 limits assumed): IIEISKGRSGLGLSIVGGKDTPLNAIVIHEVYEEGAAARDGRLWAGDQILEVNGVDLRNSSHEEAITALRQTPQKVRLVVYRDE
In assay [5] the target is Inadl_5 PDZ (Homo sapiens, UniProt Q8NI35).
Inadl_5 PDZ, sequence (Q8NI35 686-772 limits assumed): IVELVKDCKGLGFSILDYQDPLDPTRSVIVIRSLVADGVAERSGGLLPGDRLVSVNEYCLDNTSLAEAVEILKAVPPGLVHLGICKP
The target in assay [6] is MPDZ_10 PDZ (Homo sapiens, UniProt O75970).
MPDZ_10 PDZ, sequence (O75970 1629-1712 limits assumed): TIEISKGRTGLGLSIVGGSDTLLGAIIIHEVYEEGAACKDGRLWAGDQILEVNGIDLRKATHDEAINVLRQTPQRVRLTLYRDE
In assay [7] the target is GRIP2_2 PDZ (Homo sapiens, UniProt Q9C0E4).
GRIP2_2 PDZ, sequence (Q9C0E4 148-234 limits assumed): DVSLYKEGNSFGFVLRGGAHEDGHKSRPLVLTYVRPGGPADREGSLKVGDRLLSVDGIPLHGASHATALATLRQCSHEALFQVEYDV
Assay [8] deals with MAGI2_6 PDZ (Homo sapiens, UniProt Q86UL8). The note with it: composite holdup affinity; 0.00=below quantification threshold; read-out: COMP pKd (converted).
MAGI2_6 PDZ, sequence (Q86UL8 1147-1229 limits assumed): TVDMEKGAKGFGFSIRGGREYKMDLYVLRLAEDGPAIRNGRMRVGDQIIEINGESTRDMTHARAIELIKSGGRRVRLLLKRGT
Assay [9] has as its target DLG5_2 PDZ (Homo sapiens, UniProt Q8TDM6). The note with it: sheet PPI_convert; read-out: affinity to PDZ DLG5_2 (converted).
Assay [10] has as its target DLG5_4 PDZ (Homo sapiens, UniProt Q8TDM6). To be noted: sheet PPI_convert; read-out: affinity to PDZ DLG5_4 (converted).
Assay [11] concerns the target IL16_2 PDZ (Homo sapiens, UniProt Q14005). The note with it: sheet PPI_convert; read-out: affinity to PDZ IL16_2 (converted).
The target of assay [12] is MAGI1_3 PDZ (Homo sapiens, UniProt Q96QZ7). To be noted: sheet PPI_convert; read-out: affinity to PDZ MAGI1_3 (converted).
MAGI1_3 PDZ, sequence (Q96QZ7 643-721 limits assumed): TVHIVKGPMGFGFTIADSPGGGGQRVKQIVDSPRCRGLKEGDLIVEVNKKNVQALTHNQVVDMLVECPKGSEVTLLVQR
In assay [13] the target is MAGI1_5 PDZ (Homo sapiens, UniProt Q96QZ7). To be noted: sheet PPI_convert; read-out: affinity to PDZ MAGI1_5 (converted).
MAGI1_5 PDZ, sequence (Q96QZ7 970-1066 limits assumed): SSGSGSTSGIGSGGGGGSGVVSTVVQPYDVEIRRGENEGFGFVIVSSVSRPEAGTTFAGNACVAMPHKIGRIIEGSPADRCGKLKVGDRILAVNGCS
Assay [14] has as its target MAGI1_6 PDZ (Homo sapiens, UniProt Q96QZ7). The note with it: sheet PPI_convert; read-out: affinity to PDZ MAGI1_6 (converted).
Assay [15] has as its target MAGI3_4 PDZ (Homo sapiens, UniProt Q5TCQ9). To be noted: sheet PPI_convert; read-out: affinity to PDZ MAGI3_4 (converted).
The target in assay [16] is MAGI3_6 PDZ (Homo sapiens, UniProt Q5TCQ9). The note with it: sheet PPI_convert; read-out: affinity to PDZ MAGI3_6 (converted).
MAGI3_6 PDZ, sequence (Q5TCQ9 1021-1103 limits assumed): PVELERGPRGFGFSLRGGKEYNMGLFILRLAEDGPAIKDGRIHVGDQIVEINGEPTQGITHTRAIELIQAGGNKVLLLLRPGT
Assay [17] deals with MAGIX PDZ (Homo sapiens, UniProt Q9H6Y5). The note with it: sheet PPI_convert; read-out: affinity to PDZ MAGIX (converted). The text has this:
Supplement 41467_2022_33018_MOESM4_ESM.xlsx, sheet "PPI_convert" | column: MAGIX

The target of assay [18] is MPDZ_13 PDZ (Homo sapiens, UniProt O75970). The note with it: sheet PPI_convert; read-out: affinity to PDZ MPDZ_13 (converted).
MPDZ_13 PDZ, sequence (O75970 1987-2070 limits assumed): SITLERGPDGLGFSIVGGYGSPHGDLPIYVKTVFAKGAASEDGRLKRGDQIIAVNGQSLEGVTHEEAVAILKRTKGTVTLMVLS
The target in assay [19] is MPDZ_4 PDZ (Homo sapiens, UniProt O75970). The note with it: sheet PPI_convert; read-out: affinity to PDZ MPDZ_4 (converted). The text has this:
Supplement 41467_2022_33018_MOESM4_ESM.xlsx, sheet "PPI_convert" | column: MPDZ_4

Assay [20] deals with MPP3 PDZ (Homo sapiens, UniProt Q13368). To be noted: sheet PPI_convert; read-out: affinity to PDZ MPP3 (converted).
MPP3 PDZ, sequence (Q13368 137-212 limits assumed): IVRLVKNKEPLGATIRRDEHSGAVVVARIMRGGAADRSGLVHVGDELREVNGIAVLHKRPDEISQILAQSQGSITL
In assay [21] the target is NHERF2_1 PDZ (Homo sapiens, UniProt Q15599). To be noted: sheet PPI_convert; read-out: affinity to PDZ NHERF2_1 (converted).
NHERF2_1 PDZ, sequence (Q15599 11-90 limits assumed): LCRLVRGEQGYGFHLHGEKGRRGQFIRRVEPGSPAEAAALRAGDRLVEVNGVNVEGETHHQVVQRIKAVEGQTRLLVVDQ
The target in assay [22] is NHERF4_3 PDZ (Homo sapiens, UniProt Q86UT5). The note with it: sheet PPI_convert; read-out: affinity to PDZ NHERF4_3 (converted).
NHERF4_3 PDZ, sequence (Q86UT5 329-412 limits assumed): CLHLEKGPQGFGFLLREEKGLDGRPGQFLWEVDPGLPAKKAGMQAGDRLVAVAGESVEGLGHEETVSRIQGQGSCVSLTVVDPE
Assay [23] deals with PARD3B_3 PDZ (Homo sapiens, UniProt Q8TEW8). The note with it: sheet PPI_convert; read-out: affinity to PDZ PARD3B_3 (converted).
PARD3B_3 PDZ, sequence (Q8TEW8 498-585 limits assumed): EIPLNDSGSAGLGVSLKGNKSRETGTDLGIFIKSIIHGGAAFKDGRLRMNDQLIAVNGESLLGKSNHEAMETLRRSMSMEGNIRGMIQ
In assay [24] the target is PDZD2_5 PDZ (Homo sapiens, UniProt O15018). To be noted: sheet PPI_convert; read-out: affinity to PDZ PDZD2_5 (converted).
PDZD2_5 PDZ, sequence (O15018 2622-2706 limits assumed): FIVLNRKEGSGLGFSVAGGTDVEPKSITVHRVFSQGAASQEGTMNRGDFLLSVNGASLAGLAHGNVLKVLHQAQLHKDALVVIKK
In assay [25] the target is PDZD4 PDZ (Homo sapiens, UniProt Q76G19). To be noted: sheet PPI_convert; read-out: affinity to PDZ PDZD4 (converted). The text has this: Supplement 41467_2022_33018_MOESM4_ESM.xlsx, sheet "PPI_convert" | column: PDZD4
PDZD4 PDZ, sequence (Q76G19 130-214 limits assumed): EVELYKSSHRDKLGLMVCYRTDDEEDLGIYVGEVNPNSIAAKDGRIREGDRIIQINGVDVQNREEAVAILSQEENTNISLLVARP
The target of assay [26] is PDZRN3_2 PDZ (Homo sapiens, UniProt Q9UPQ7). To be noted: sheet PPI_convert; read-out: affinity to PDZ PDZRN3_2 (converted).
PDZRN3_2 PDZ, sequence (Q9UPQ7 419-503 limits assumed): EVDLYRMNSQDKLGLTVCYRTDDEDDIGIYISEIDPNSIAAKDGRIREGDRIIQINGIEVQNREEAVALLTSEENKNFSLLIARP
Assay [27] has as its target DFNB31_1 PDZ (Homo sapiens, UniProt Q9P202). To be noted: composite holdup affinity; 0.00=below quantification threshold; read-out: COMP pKd (converted).

MAGI3_4 PDZ, sequence (Q5TCQ9 726-808 limits assumed): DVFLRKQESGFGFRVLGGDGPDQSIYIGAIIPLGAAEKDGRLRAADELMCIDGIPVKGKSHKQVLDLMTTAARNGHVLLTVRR
MAGI1_6 PDZ, sequence (Q96QZ7 1124-1206 limits assumed): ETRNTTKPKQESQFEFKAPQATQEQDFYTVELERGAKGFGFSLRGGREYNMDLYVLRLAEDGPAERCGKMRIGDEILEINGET
DLG5_2 PDZ, sequence (Q8TDM6 705-796 limits assumed): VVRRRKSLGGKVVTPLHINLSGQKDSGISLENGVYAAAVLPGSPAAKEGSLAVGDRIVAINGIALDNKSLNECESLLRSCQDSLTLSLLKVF
MPDZ_4 PDZ, sequence (O75970 553-634 limits assumed): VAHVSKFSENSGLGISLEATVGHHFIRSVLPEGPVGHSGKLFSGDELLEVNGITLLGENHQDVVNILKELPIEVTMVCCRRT
DFNB31_1 PDZ, sequence (Q9P202 140-223 limits assumed): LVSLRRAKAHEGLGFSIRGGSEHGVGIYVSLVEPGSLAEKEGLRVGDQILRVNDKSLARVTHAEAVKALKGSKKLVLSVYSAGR
RADIL PDZ, sequence (Q96JH8 976-1061 limits assumed): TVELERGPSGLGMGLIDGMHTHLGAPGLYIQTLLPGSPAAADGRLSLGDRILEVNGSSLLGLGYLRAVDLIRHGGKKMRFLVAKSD
LNX2_2 PDZ, sequence (Q8N448 339-422 limits assumed): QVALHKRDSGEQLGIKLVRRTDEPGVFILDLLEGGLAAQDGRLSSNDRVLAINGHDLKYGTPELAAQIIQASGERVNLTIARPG
IL16_2 PDZ, sequence (Q14005 355-440 limits assumed): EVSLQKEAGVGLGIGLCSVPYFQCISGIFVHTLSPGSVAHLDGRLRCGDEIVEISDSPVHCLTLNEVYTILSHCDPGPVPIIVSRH
DLG5_4 PDZ, sequence (Q8TDM6 1501-1582 limits assumed): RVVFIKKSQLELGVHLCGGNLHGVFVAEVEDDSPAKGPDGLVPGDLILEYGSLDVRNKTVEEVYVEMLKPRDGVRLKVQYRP
MAGIX PDZ, sequence (Q9H6Y5 125-209): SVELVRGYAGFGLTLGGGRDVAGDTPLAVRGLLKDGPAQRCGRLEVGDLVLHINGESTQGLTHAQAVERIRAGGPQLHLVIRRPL

For the compound `CC(C)C[C@H](NC(=O)[C@@H](N)CCCNC(=N)N)C(=O)N[C@@H](CCC(N)=O)C(=O)N[C@@H](CCCNC(=N)N)C(=O)N[C@@H](CCCNC(=N)N)C(=O)N[C@@H](CCCNC(=N)N)C(=O)N[C@@H](CCC(=O)O)C(=O)N[C@H](C(=O)N[C@@H](CCC(N)=O)C(=O)N[C@H](C(=O)O)C(C)C)[C@@H](C)O` [HPV18-E6], the Kd was 676 µM in assay [1]; 661 µM in assay [2]; 525 µM in assay [3]; 479 µM in assay [4]; 302 µM in assay [5]; 275 µM in assay [6]. For the same compound, the Kd in [7] was 33.1 µM.

Turning to SKPTRRETEV [HPV35-E6], the Kd is 324 µM in assay [8]; 19.1 µM in assay [9]; 219 µM in [10]; 269 µM in assay [11]; 81.3 µM in [12]; 37.2 µM in assay [13]. Moreover, the Kd is 219 µM in assay [14]; 174 µM in [15]; 155 µM in [16]; 275 µM in assay [17]; 170 µM in [18]; 282 µM in [19]. Besides, the Kd in assay [20] is 200 µM; in assay [21], 170 µM; in [22] it was 166 µM; in [23], 186 µM; in [24], 170 µM; in assay [25] it was 282 µM. For the same compound, the Kd in [26] is 269 µM.

With SRRPRTETQV [HPV31-E6], the Kd in assay [27] is 282 µM.
